Laboratory results taken from patent US20160213742A1, “COMPOSITIONS AND METHODS FOR THE TREATMENT OF FUNGAL INFECTIONS” (priority 2013, published 2016).

Assays:
Type in all cases: cell-based
[1] = test system: Neutrophils purified from human peripheral blood; experiment: Human Neutrophil Transwell Migration Assay; conditions: 37° C., 45 minutes, % of the maximum migration possible
Method in brief: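 Neutrophils (~50,000–100,000) were placed above 5-micron transwell inserts with test compound in the lower chamber and allowed to migrate 45 min at 37° C. Migrated cells were quantified by ATP luminescence; medium-only background was subtracted and values expressed as % of cells added directly to the bottom well.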

[2] = test system: C. albicans ATCC 90028; conditions: C. albicans ATCC 90028; read at 50% growth inhibition for echinocandins (24 h), 100% for amphotericin B (48 h)
Experimental: (§1) MIC and MEC assays were run as described in Example 31 with the following exceptions. Starting solutions of all antifungal agents were prepared in 100% DMSO. Stock concentrations were made at 50× the highest final assay concentration and serially diluted 2-fold, 16 times in a 96-well PCR plate (VWR 83007-374). Candida and Aspergillus suspensions from Sabouraud dextrose agar plate cultures were prepared in 0.85% saline at 0.5 McFarland standard (˜0.1 OD530 nm). Candida suspensions were diluted 1:500 in RPMI (MP Biomedicals, cat no. 1060124; buffered with MOPS and adjusted with NaOH to pH 7.0) to a concentration of ˜0.5-2.5×10^3 CFU/mL and Aspergillus suspensions were diluted 1:50 in RPMI to 0.4-5×10^4 CFU/mL final concentration. 98 μL of each cell suspension in RPMI were added to test wells in a 96-well assay plate (Costar cat. no. 3370). A Beckman Multimek 96 liquid handling robot was used to dispense 2 μL of each 50× stock compound into the plate containing 98 μL of each strain in RPMI (2% final solvent concentration). Plates were shaken then incubated at 35° C. for 24-48 h prior to reading. MIC values were read visually at 50% growth inhibition for echinocandins (24 h) and at 100% growth inhibition for amphotericin B (48 h). MEC values (24 h) were read with the aid of a microscope at the lowest echinocandin concentration where rounded/compact hyphal morphology was observed.

[3] = test system: C. glabrata ATCC 90030; conditions: C. glabrata ATCC 90030; read at 50% growth inhibition for echinocandins (24 h), 100% for amphotericin B (48 h)
Experimental: as §1

[4] = test system: C. krusei ATCC 14243; conditions: C. krusei ATCC 14243; read at 50% growth inhibition for echinocandins (24 h), 100% for amphotericin B (48 h)
Experimental: as §1

[5] = test system: C. parapsilosis ATCC 22019; conditions: C. parapsilosis ATCC 22019; read at 50% growth inhibition for echinocandins (24 h), 100% for amphotericin B (48 h)
Experimental: as §1

[6] = test system: C. tropicalis ATCC 750; conditions: C. tropicalis ATCC 750; read at 50% growth inhibition for echinocandins (24 h), 100% for amphotericin B (48 h)
Experimental: as §1

[7] = test system: A. flavus ATCC MYA-3631; experiment: MEC assay (Example 32); conditions: MEC values (24 h), rounded/compact hyphal morphology
Experimental: as §1

[8] = test system: A. fumigatus ATCC 13073; experiment: MEC assay (Example 32); conditions: MEC values (24 h), rounded/compact hyphal morphology
Experimental: as §1

[9] = test system: A. fumigatus MYA-3626; experiment: MEC assay (Example 32); conditions: MEC values (24 h), rounded/compact hyphal morphology
Experimental: as §1

[10] = test system: A. fumigatus MYA-4609; experiment: MEC assay (Example 32); conditions: MEC values (24 h), rounded/compact hyphal morphology
Experimental: as §1

[11] = test system: A. niger ATCC 16404; experiment: MEC assay (Example 32); conditions: MEC values (24 h), rounded/compact hyphal morphology
Experimental: as §1

Row | Compound | % Neutrophil Migration ([1]; conc 0.001 μg/mL) [%] | % Neutrophil Migration ([1]; conc 0.01 μg/mL) [%] | % Neutrophil Migration ([1]; conc 0.1 μg/mL) [%] | % Neutrophil Migration ([1]; conc 1 μg/mL) [%] | % Neutrophil Migration ([1]; conc 10 μg/mL) [%] | MIC [2] [µg/mL] | MIC [3] [µg/mL] | MIC [4] [µg/mL] | MIC [5] [µg/mL] | MIC [6] [µg/mL] | MEC [7] [µg/mL] | MEC [8] [µg/mL] | MEC [9] [µg/mL] | MEC [10] [µg/mL] | MEC [11] [µg/mL]
1 | CC[C@H](C)C[C@H](C)CCCCCCCCC(=O)N[C@H]1C[C@@H](O)[C@@H](NCCN)NC(=O)[C@@H]2[C@@H](O)CCN2C(=O)[C@H]([C@H](O)CCNC(=O)[C@H](Cc2ccccc2)NC(=O)[C@H](CC(C)C)NC(=O)[C@H](CCSC)NC=O)NC(=O)[C@H]([C@H](O)[C@@H](O)c2ccc(O)cc2)NC(=O)[C@@H]2C[C@@H](O)CN2C(=O)[C@H]([C@@H](C)O)NC1=O [Compound 1] | −4.7 | 67.9 | 70.7 | −10.6 | −11.2 |  |  |  |  |  |  |  |  |  | 
2 | CC[C@H](C)C[C@H](C)CCCCCCCCC(=O)N[C@H]1C[C@@H](O)[C@@H](OCCN)NC(=O)[C@@H]2[C@@H](O)CCN2C(=O)[C@H]([C@H](O)CCNC(=O)[C@H](Cc2ccccc2)NC(=O)[C@H](CC(C)C)NC(=O)[C@H](CCSC)NC=O)NC(=O)[C@H]([C@H](O)[C@@H](O)c2ccc(O)cc2)NC(=O)[C@@H]2C[C@@H](O)CN2C(=O)[C@H]([C@@H](C)O)NC1=O [Compound 11] | −4.7 | 80.3 | 28.3 | −8.0 | −10.9 |  |  |  |  |  |  |  |  |  | 
3 | caspofungin acetate [reference compound] |  |  |  |  |  | 0.125 | 0.25 | 0.25 | 0.5 | 0.125 | 0.06 | 0.03 | 0.06 | 0.06 | 0.06
